Experiments:
[1] = Activation of Flag/His-tagged human recombinant OGG1 (1 to 345 residues) by fluorescence based analysis
HCC1937 = experiment: Antitumor activity against human HCC1937 cells harboring BRAC1 mutant xenografted in NOD/SCID mouse assessed as increase in survival rate at 250 mg/kg, ip measured after 60 days relative to control; type: functional; conditions: time 60 day
[2] = Induction of DNA repair activity in human SUM149PT cells harboring BRCA1 mutant co-expressing GFP reporter gene at 100 uM relative to control; type: functional
[3] = biological target: T1, NAD-dependent protein deacetylase sirtuin-1 (Homo sapiens) (UniProt Q96EB6); experiment: Activation of N-terminal Hex/Histidine-tagged human SIRT1 extracted from Escherichia coli BL21 (DE3) by Fluorescence polarization assay; conditions: filed as activator
T1 sequence (whole entry): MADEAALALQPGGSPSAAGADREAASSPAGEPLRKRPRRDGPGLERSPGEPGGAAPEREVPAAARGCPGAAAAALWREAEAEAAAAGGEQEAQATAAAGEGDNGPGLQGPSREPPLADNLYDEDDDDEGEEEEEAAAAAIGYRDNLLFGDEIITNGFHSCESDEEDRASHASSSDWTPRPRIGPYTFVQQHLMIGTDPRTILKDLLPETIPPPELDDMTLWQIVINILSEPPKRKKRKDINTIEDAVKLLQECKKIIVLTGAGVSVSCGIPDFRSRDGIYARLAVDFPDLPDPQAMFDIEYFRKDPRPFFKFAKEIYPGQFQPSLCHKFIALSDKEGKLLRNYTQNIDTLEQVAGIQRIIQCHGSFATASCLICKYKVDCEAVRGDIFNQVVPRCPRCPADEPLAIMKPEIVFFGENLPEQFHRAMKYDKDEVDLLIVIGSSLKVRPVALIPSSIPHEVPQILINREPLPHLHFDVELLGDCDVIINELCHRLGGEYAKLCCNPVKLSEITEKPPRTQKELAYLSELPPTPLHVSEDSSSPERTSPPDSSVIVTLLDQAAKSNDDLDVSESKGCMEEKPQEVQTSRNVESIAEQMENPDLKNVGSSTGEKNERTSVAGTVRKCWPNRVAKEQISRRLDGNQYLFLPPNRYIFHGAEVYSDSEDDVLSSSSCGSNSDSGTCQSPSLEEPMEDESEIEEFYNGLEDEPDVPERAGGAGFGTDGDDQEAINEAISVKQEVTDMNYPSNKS

[4] = Activation of rat liver AMPK
[5] = Upregulation of OGG1 level in human A549 cells at 30 uM measured for 48 hrs relative to control; type: functional
[6] = Induction of DNA repair activity in human SUM149PT cells harboring BRCA1 mutant co-expressing GFP reporter gene at 1 uM relative to control; type: functional
[7] = Upregulation of OGG1 expression in mouse MCT cells assessed as fold increase at 2 mM
Mus musculus [8] = organism: Mus musculus; experiment: Reversal of oxidative stress-induced DNA damage in mouse model assessed as increase in expression of APE1 by measuring fold change
Mus musculus [9] = organism: Mus musculus; experiment: Reversal of oxidative stress-induced DNA damage in mouse model assessed as increase in expression of XRCC1 by measuring fold change
Mus musculus [10] = organism: Mus musculus; experiment: Reversal of oxidative stress-induced DNA damage in mouse model assessed as increase in expression of OGG1 by measuring fold change
[11] = Activation of MTH1 (unknown origin); design: species or system Homo sapiens
HCC1806 = experiment: Antiproliferative activity against human HCC1806 cells assessed as reduction in cell viability incubated for 72 hrs by MTT assay; type: functional, cell-based; conditions: HCC1806, 72 h
[12] = Upregulation of BRCA1 expression in mouse Bone marrow cells at 5 uM; type: functional, Bone marrow cell
[13] = Upregulation of BRCA2 expression in mouse Bone marrow cells at 5 uM; type: functional, Bone marrow cell

SMILES: Cc1cnc(N2CCN3CCCC3C2)nc1Oc1ccc(-n2ccnc2)cc1 (stereo not given)
- EC50 [1]: 4.6 µM

SMILES: NC(CO)C(=O)NNCc1ccc(O)c(O)c1O (stereo not given) [BENSERAZIDE]
- Activity (HCC1937): <=70%
- Activity [2]: 60%

SMILES: Cc1nc(-c2cccnc2)sc1C(=O)Nc1ccccc1-c1cn2c(CN3CCOCC3)csc2n1
- EC1.5 [3]: 0.43 µM

SMILES: Nc1ncnc2c1ncn2[C@H]1O[C@@H](COP(=O)(O)O)[C@H](O)[C@@H]1O
- EC50 [4]: 6 µM

SMILES: OC(Cn1ccnc1)(c1ccc(Cl)cc1Cl)C1CCCCC1 (stereo not given)
- EC50 [1]: 5 µM
- Activity [5]: 142.3%

SMILES: N#Cc1c(O)c2c(-c3ccc(-c4ccccc4O)cc3)csc2[nH]c1=O
- EC50 [4]: 0.116 µM

SMILES: CC(=O)c1ccc(S(=O)(=O)NC(=O)NC2CCCCC2)cc1 [ACETOHEXAMIDE]
- Activity [6]: 90%

SMILES: Cc1cc(N[C@@H](C)C(=O)Nc2ccccc2)nc(Nc2ccccc2)n1
- EC50 [1]: 4.1 µM

SMILES: CNc1nnc(C)c2c1cc(-c1ccc(F)cc1)n2C
- EC50 [1]: 5.1 µM

SMILES: NC(=O)c1ncn([C@H]2O[C@@H](COP(=O)(O)O)[C@H](O)[C@@H]2O)c1N
- fold change (FC) [7]: 5

SMILES: O=c1c(O)c(-c2ccc(O)c(O)c2)oc2cc(O)cc(O)c12 [QUERCETIN]
- fold change (FC) (Mus musculus [8]): 2
- fold change (FC) (Mus musculus [9]): 2
- fold change (FC) (Mus musculus [10]): 2

SMILES: O=C(Nc1ccc(CN2CCOCC2)c(C(F)(F)F)c1)c1ccc(C#Cc2cccc3cnccc23)cn1
- EC50 [11]: 5.5 µM
- IC50 (HCC1806): 10 µM

SMILES: COc1cc(C(=O)Nc2ccccc2-c2cn3c(CN4CCNCC4)csc3n2)cc(OC)c1OC
- EC1.5 [3]: 2.9 µM

SMILES: COc1cc(/C=C/C(=O)CC(=O)/C=C/c2ccc(O)c(OC)c2)ccc1O [CURCUMIN]
- Activity [12]: 170%
- Activity [13]: 170%

From ChEMBL document CHEMBL6177940, “Therapeutic upregulation of DNA repair pathways: strategies and small molecule activators” (RSC Med Chem, 2024)
